Data: US20210267996A1, “Compounds for inhibition of inflammation” (Children`s Medical Center Corporation, priority 2018, published 2021)

How the values were obtained:
human GSDMD-3C [1] = target: T1, human GSDMD-3C (Homo sapiens, UniProt P57764); experiment: Liposome leakage assay, GSDMD-3C plus 3C protease; format: biochemical; details: GSDMD-3C plus 3C protease
T1 construct: other: GSDMD-3C plus 3C protease; fused on or other part: His6-MBP tag, removed by TEV before use; The engineered 3C site is cut in the well by 3C protease and sets free GSDMD-NT
Method: (§1) Liposome leakage assay: fluorogenic liposome leakage assay detects leakage of Tb^3+ from Tb^3+-loaded liposomes incubated with GSDMD and caspase-11 (See References 7 and 9). Liposome leakage was detected by an increase in fluorescence when Tb^3+ bound to dipicolinic acid (DPA) in Buffer C. […] The fluorescence intensity of the well was measured at 545 nm with an excitation of 276 nm 1 hr after addition of caspase-11 using a Perkin Elmer EnVision plate reader. The final percent inhibition was calculated as [(fluorescencetest compound−fluorescencenegative control)/(fluorescencepositive control−fluorescencenegative control)]×100, where a well with GSDMD without the test compound was used as positive control, and a well without caspase-11 was used as negative control.
(§2) [LC retention time. […] (b).
(§3) To determine the relative contribution of caspase-11 inhibition versus GSDMD inhibition by disulfiram in pore formation, the caspase cleavage site in GSDMD was replaced with the rhinovirus 3C protease site (GSDMD-3C) and the 3C protease was used instead of caspase-11 in the liposome leakage assay.

human GSDMD-3C [2] = target: T2, human GSDMD-3C (Homo sapiens, UniProt P57764); experiment: Liposome leakage assay, GSDMD-3C plus 3C protease; format: biochemical; design: Human GSDMD-3C and mouse GSDMA3-3C mutants were constructed by QuikChange Mutagenesis (Agilent Technologies); fused on or other part: His6-MBP tag, removed by TEV before use; The engineered 3C site is cut in the well by 3C protease
T2 sequence (P57764 1-271 limits assumed): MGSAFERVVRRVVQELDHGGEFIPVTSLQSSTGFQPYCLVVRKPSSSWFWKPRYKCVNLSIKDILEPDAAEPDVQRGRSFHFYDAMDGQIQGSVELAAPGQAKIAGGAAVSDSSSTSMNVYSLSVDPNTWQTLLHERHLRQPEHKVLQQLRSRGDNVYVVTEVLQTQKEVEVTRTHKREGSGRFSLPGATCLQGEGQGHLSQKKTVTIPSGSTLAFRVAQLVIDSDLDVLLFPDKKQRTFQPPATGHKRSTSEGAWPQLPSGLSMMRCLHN
Method: as §1, §2, §3

`CCN(CC)C(=S)SSC(=S)N(CC)CC` [C-23, Tetraethylthiuram disulfide] was tested. Which IC50 (human GSDMD-3C [1]) did it give?
Its IC50 is 520 ± 30 nM.

Which “inhibition of leakage by GSDMD-3C plus 3C protease versus GSDMD plus caspase-11” value (human GSDMD-3C [2]) does the source give for `Cc1ccc(S(=O)(=O)/C=C/C#N)cc1` [Bay 11-7082] here?
Its value is “substantially less able to inhibit leakage”.
